{
  "source": "patent US9050295B2",
  "about": "“Composition for treatment of tuberculosis” (ETH Zurich, priority 2007, dated 2015)",
  "target": "EthR-VP16 binding to PethR (Mycobacterium bovis, UniProt Q7TVI1)",
  "sequence (Q7TVI1 whole entry, looked up)": "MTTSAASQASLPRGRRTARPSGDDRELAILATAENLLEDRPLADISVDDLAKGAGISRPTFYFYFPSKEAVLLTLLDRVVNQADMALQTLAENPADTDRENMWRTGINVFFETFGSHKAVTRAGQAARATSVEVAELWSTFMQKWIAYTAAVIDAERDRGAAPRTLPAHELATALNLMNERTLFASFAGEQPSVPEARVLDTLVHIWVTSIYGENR",
  "type": "cell-based, E. coli BL21(DE3)",
  "data": [
    {"smiles": "CCCC(=O)OCCc1ccccc1", "note": "[2-Phenylethyl butyrate]", "values": [
      {"measurement": "green fluorescence (EthR-controlled GFP expression)", "result": "adjustable green fluorescence"}
    ]}
  ]
}
